# From US12509446B2, “FYN and VEGFR2 kinase inhibitors” (ROTTAPHARM BIOTECH S.R.L., priority 2019, dated 2025)
# Legend:
# human FynB = human FynB (Homo sapiens, UniProt P06241); experiment: Inhibition of FynB-induced Tau(Y18)-phosphorylation in HEK293 cells; type: cell-based
# Method: After 24 h, cells were transfected in order to over-express either constitutively active form of human FynB and Tau protein (isoform 0N4R), through an optimized Lipofectamine®3000 Transfection protocol (Life Technologies™). A non-transfected sample (negative control) was included in every experiment. Twenty-four hours from transfection, treatments of cells were performed by adding fresh medium containing diluent (DMSO 0.1% final concentration) or test compounds. The incubation was carried out for 6 or 24 hours at 37° C. with 5% CO2. At the end of the incubation, the medium was removed and cellular lysates, obtained by adding M-PER lysis/Protease/Phosphatase inhibitors cocktail, were transferred into Eppendorf tubes, sonicated and stored at −80° C. Protein content was measured by Bradford method. Lysates were analyzed either by customized ELISA assays for Tau phosphorylation (Tyrosine 18 residue—Fyn mediated) and Tau-Total amount determination.
# AMPKa = experiment: Kinase selectivity (Eurofins Cerep), AMPKa; type: biochemical, human; conditions: maximal concentration tested 10 μM
# Method: The assays were performed in Eurofins Cerep (France). The concentration range of the compound under investigation was from 10^−9 M up to 10^−5 M final concentration.
# CFA induced hyperalgesia = experiment: Complete Freund Adjuvant (CFA)-induced inflammatory pain in rats; type: in vivo, rat; conditions: intra-dermal
# MMP13 = experiment: Gene expression in rat articular chondrocytes under IL-1β stimulation, MMP13; type: cell-based; conditions: Rattus norvegicus, Chondrocyte; 24 h incubation
# Outline: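 Cells are first synchronized in low-supplement medium (DMEM GlutaMAX I 0.4%). They are then exposed together to test compound and 2 ng/ml cytokine. After 6 h, IL-1β and ADAMTS-5 mRNA is quantified, and after 24 h MMP3 and MMP13 mRNA, all by TaqMan PCR against 18S.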
# Chain of human FynB (P06241 2-537 limits assumed): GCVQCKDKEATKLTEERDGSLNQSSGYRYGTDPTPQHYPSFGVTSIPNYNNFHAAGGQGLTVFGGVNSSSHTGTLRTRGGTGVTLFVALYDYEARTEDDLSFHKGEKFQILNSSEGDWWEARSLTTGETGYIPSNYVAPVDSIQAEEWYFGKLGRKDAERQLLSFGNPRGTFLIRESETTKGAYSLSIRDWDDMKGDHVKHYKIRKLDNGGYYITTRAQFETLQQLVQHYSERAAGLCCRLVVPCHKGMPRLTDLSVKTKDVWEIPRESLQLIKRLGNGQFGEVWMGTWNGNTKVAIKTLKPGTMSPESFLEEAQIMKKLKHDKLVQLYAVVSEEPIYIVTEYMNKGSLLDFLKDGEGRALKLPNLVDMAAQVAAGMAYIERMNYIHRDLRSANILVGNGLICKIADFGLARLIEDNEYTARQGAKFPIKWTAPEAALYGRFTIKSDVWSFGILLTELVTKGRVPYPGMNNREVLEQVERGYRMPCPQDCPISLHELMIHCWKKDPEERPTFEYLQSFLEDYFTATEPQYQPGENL
structure (smiles),measurement,setting,value
"Cc1ccc(NC(=O)c2cccc(C(F)(F)F)c2)cc1CCc1cc(Nc2cnccn2)[nH]n1 [Compound 3, N-(4-methyl-3-(2-(5-(pyrazin-2-ylamino)-1H-pyrazol-3-yl)ethyl)phenyl)-3-(trifluoromethyl)benzamide]",Effect on Tau-protein total amount,human FynB,Moderate not significant effect
same,Mean percentage of inhibition of Tau(Y18)-phosphorylation,human FynB; after 24 hours of treatment,95%
same,IC50,"human FynB; read-out: Inhibition of FynB-induced Tau(Y18)-phosphorylation IC50, after 6 hours of treatment",0.131 µM
same,IC50,AMPKa,> 10 µM
same,Effect on normal nociception in naïve animals,"CFA induced hyperalgesia; 3 μM (140 ng/paw), no CFA challenge",did not modify the normal nociception
same,Effect on pain behavior in CFA inflamed animals (mechanical pain threshold),CFA induced hyperalgesia; maximal concentration of 3 μM (140 ng/paw),completely reverted the pain behavior
same,IC50,MMP13,0.477 µM
